Legend:
[1] = target: T1, human capsaicin receptor (Homo sapiens, UniProt Q8NER1); assay: Calcium mobilization assay, agonist response to capsaicin (Example 6); format: cell-based; conditions: cells expressing human capsaicin receptor, positive control; read-out: approximate EC90 concentration
T1 construct: transfected with the pBK-CMV expression construct encoding the full length human capsaicin receptor; expressed in transfected cells
Procedure: Cells transfected with expression plasmids (as described in Example 4) and thereby expressing human capsaicin receptor are seeded and grown to 70-90% confluency in FALCON black-walled, clear-bottomed 96-well plates (#3904, BECTON-DICKINSON, Franklin Lakes, N.J.). The culture medium is emptied from the 96 well plates and FLUO-3 AM calcium sensitive dye (Molecular Probes, Eugene, Oreg.) is added to each well (dye solution: 1 mg FLUO-3 AM, 440 μL DMSO and 440 μl 20% pluronic acid in DMSO, diluted 1:250 in Krebs-Ringer HEPES (KRH) buffer (25 mM HEPES, 5 mM KCl, 0.96 mM NaH2PO4, 1 mM MgSO4, 2 mM CaCl2, 5 mM glucose, 1 mM probenecid, pH 7.4), 50 μl diluted solution per well). […]
To measure the ability of a test compound to agonize or antagonize a calcium mobilization response in cells expressing capsaicin receptors to capsaicin or other vanilloid agonist, the EC50 of the agonist capsaicin is first determined. […] Capsaicin-induced calcium mobilization is monitored using either FLUOROSKAN ASCENT (Labsystems; Franklin, Mass.) or FLIPR (fluorometric imaging plate reader system; Molecular Devices, Sunnyvale, Calif.) instruments. […] In this equation, y is the maximum fluorescence signal, x is the concentration of the agonist or antagonist (in this case, capsaicin), a is the Emax, b corresponds to the EC50 value and c is the Hill coefficient. […]

[2] = target: T1, human capsaicin receptor; assay: Calcium mobilization assay, capsaicin receptor antagonist activity (Example 6); format: cell-based; conditions: read-out: IC50 in standard assay of capsaicin receptor activity
Procedure: Human embryonic kidney (HEK293) cells were transfected with the pBK-CMV expression construct encoding the full length human capsaicin receptor using standard methods. The transfected cells were selected for two weeks in media containing G418 (400 μg/ml) to obtain a pool of stably transfected cells. Independent clones were isolated from this pool by limiting dilution to obtain clonal stable cell lines for use in subsequent experiments.
This Example illustrates representative calcium mobilization assays for use in evaluating test compounds for agonist and antagonist activity.
Cells transfected with expression plasmids (as described in Example 4) and thereby expressing human capsaicin receptor are seeded and grown to 70-90% confluency in FALCON black-walled, clear-bottomed 96-well plates (#3904, BECTON-DICKINSON, Franklin Lakes, N.J.). The culture medium is emptied from the 96 well plates and FLUO-3 AM calcium sensitive dye (Molecular Probes, Eugene, Oreg.) is added to each well (dye solution: 1 mg FLUO-3 AM, 440 μL DMSO and 440 μl 20% pluronic acid in DMSO, diluted 1:250 in Krebs-Ringer HEPES (KRH) buffer (25 mM HEPES, 5 mM KCl, 0.96 mM NaH2PO4, 1 mM MgSO4, 2 mM CaCl2, 5 mM glucose, 1 mM probenecid, pH 7.4), 50 μl diluted solution per well). […] After the incubation, the dye is emptied from the plates, and the cells are washed once with KRH buffer, and resuspended in KRH buffer.
To measure the ability of a test compound to agonize or antagonize a calcium mobilization response in cells expressing capsaicin receptors to capsaicin or other vanilloid agonist, the EC50 of the agonist capsaicin is first determined. An additional 20 μl of KRH buffer and 1 μl DMSO is added to each well of cells, prepared as described above. 100 μl capsaicin in KRH buffer is automatically transferred by the FLIPR instrument to each well. Capsaicin-induced calcium mobilization is monitored using either FLUOROSKAN ASCENT (Labsystems; Franklin, Mass.) or FLIPR (fluorometric imaging plate reader system; Molecular Devices, Sunnyvale, Calif.) instruments. […] In this equation, y is the maximum fluorescence signal, x is the concentration of the agonist or antagonist (in this case, capsaicin), a is the Emax, b corresponds to the EC50 value and c is the Hill coefficient. […]
Test compounds are dissolved in DMSO, diluted in 20 μl KRH buffer so that the final concentration of test compounds in the assay well is between 1 μM and 5 μM, and added to cells prepared as described above. […] Just prior to determining the fluorescence response, 100 μl capsaicin in KRH buffer at twice the EC50 concentration determined as described above is automatically added by the FLIPR instrument to each well of the 96 well plate for a final sample volume of 200 μl and a final capsaicin concentration equal to the EC50. […]

T1 sequence (Q8NER1 whole entry): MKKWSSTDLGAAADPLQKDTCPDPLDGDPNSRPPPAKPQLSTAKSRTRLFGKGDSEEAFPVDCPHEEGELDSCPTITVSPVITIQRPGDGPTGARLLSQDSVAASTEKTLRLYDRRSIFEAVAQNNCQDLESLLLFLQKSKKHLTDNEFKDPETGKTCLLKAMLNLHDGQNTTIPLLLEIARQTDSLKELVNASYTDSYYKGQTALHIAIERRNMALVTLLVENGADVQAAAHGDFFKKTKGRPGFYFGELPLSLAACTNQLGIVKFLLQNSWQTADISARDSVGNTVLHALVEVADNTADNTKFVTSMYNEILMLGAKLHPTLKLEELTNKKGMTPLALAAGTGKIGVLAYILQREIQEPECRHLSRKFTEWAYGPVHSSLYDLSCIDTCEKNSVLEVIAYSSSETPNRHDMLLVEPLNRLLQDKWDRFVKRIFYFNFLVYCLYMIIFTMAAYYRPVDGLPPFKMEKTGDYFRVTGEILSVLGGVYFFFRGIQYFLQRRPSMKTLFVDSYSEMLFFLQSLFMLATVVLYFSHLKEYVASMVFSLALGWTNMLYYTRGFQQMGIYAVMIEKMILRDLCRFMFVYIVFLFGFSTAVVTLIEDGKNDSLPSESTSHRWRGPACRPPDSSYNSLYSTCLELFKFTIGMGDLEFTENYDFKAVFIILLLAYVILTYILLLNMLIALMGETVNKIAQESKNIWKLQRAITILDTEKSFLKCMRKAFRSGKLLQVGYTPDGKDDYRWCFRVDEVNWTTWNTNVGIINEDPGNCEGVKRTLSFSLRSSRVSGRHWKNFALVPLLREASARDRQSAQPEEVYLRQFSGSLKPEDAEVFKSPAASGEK

COc1cc(CNC(=O)CCCC/C=C/C(C)C)ccc1O [capsaicin]
EC90 [1]: ~0.1 µM

COCc1nc(Nc2ccc(C(F)(F)F)cc2)c2ccc(-c3ncccc3C)cc2n1 [Compound 3, [2-Methoxymethyl-7-(3-methylpyridin-2-yl)-quinazolin-4-yl)-(4-trifluoromethylphenyl)-amine]
IC50 [2]: < 0.01 µM

CC(C)COCc1nc(Nc2ccc(C(F)(F)F)cn2)c2ccc(-c3ncccc3C(F)(F)F)nc2n1 [Compound 132, [2-lsobutoxymethyl-7-(3-trifluoromethyl-pyridin-2-yl)-pyrido[2,3-d]pyrimidin-4-yl]-(5-trifluoromethyl-pyridin-2-yl)-amine]
IC50 [2]: < 0.01 µM

COCc1nc(Nc2ccc(C(F)(F)F)cc2)c2ccc(-c3ncccc3Cl)nc2n1 [Compound 2, [7-(3-Chloro-pyridin-2-yl)-2-methoxymethyl-pyrido[2,3-d]pyrimidin-4-yl]-(4-trifluoromethyl-phenyl)-amine]
IC50 [2]: < 0.01 µM

COCc1nc(Nc2ccc(C(F)(F)F)cn2)c2ccc(-c3ncccc3C(F)(F)F)nc2n1 [Compound 133, [2-Methoxymethyl-7-(3-trifluoromethyl-pyridin-2-yl)-pyrido[2,3-d]pyrimidin-4-yl]-(5-trifluoromethy1-pyridin-2-yl)-amine]
IC50 [2]: < 0.01 µM

— US7329664B2, “Substituted (7-pyridyl-4-phenylamino-quinazolin-2-yl)-methanol analogues” (Neurogen Corporation, priority 2003, dated 2008)
